Laboratory results reported in patent EP1473301A2, “Betulinol derivatives” (CORNELL RESEARCH FOUNDATION, INC., priority 1997, dated 1998).

Columns and labels:
[1] = Betulinol biacetate solubility in organic solvents; type: physicochemical
Protocol: Studies of betulinol biacetate solubility were conducted in order to determine the appropriate solvent for product crystallization and purification.

[2] = system: WALKER-CARCINOMA (carcinosarcoma); experiment: Anti-carcinogenic activity in rats implanted with Walker carcinoma (tumor volume, average length of life, % cured); type: in vivo, white rats
Protocol: (§1) The anti-carcinogenic activity of betulinol biacetate and betulonic aldehyde was assessed using 117-120 gram white rats implanted with […] and 21-23 gram white mice with artificially transplanted Ehrlich's tumor.
(§2) Solutions of 2.5% betulonic aldehyde and 0.05% betulinol biacetate were prepared in 10% polyvinylpyrrolidone containing Tween-80 (a sorbitan mono-9-octadecenate poly(oxy-1,2-ethanediyl)) stabilizer.
(§3) Mice were injected with 0.1-0.2 ml of either betulinol biacetate or betulonic aldehyde solution daily, starting 24 hours after transplantation, for the following 5 days. Rats were injected with 1.2 ml of either betulinol biacetate or betulonic aldehyde solution daily, starting 24 hours after implantation, for the following 5 days. Animals in control groups received the same amount of a 10% solution of polyvinylpyrrolidone.
(§4) The anti-tumor effect of betulinol acetate or betulonic aldehyde was determined by measuring the volume of the tumor on the 10th day after implantation. An average length of life ("ALL") was calculated for each of the deceased animals. In addition, the percentage of cured rats was also determined.
(§5) The volume of the tumor was measured and calculated as a multiple of the quadrate of its similar diameter by the greater diameter. Thus, the effect was expressed as a ratio ("E/C"), in percent, of the tumor volume in rats treated with betulinol acetate or betulonic aldehyde ("E") and the tumor volume in control rats ("C"). The effect of betulinol acetate or betulonic aldehyde on ALL was evaluated the same way.
(§6) A total of 155 mice and 142 rats were used for these experiments.

EHRLICH-LETTRE CARCINOMA = experiment: Anti-carcinogenic activity in mice with transplanted Ehrlich tumor (average length of life); type: in vivo, white mice; conditions: for ALL (Average length of life): 17 Mice/Group, control 10.6; for % of control (ALL): control = 100
Protocol: as §1, §2, §3, §4, §5, §6

[3] = Group 1, Dose/day 206.7 mg/kg body weight
[4] = Group 2, Dose/day 197.0 mg/kg body weight
[5] = Group 3, Dose/day 98.0 mg/kg body weight

C=C(C)[C@@H]1CC[C@]2(COC(C)=O)CC[C@]3(C)[C@H](CC[C@@H]4[C@@]5(C)CC[C@H](OC(C)=O)C(C)(C)[C@@H]5CC[C@]43C)[C@@H]12 [Betulinol diacetate, Betulinol Biacetate]
BBA Mass Content, %, at 20 °C ([1]; Acetone): 32 mass % | BBA Mass Content, %, at T (°C) ([1]; Acetone, 56 °C): 68 mass % | BBA Mass Content, %, at 20 °C ([1]; Benzene): 100 mass % | BBA Mass Content, %, at 20 °C ([1]; Butanol): 15 mass % | BBA Mass Content, %, at T (°C) ([1]; Butanol, 95 °C): 100 mass % | BBA Mass Content, %, at 20 °C ([1]; Chloroform): 100 mass % | BBA Mass Content, %, at 20 °C ([1]; Dimethylsulfoxide): 30 mass % | BBA Mass Content, %, at T (°C) ([1]; Dimethylsulfoxide, 189 °C): 100 mass % | BBA Mass Content, %, at 20 °C ([1]; Dioxane): 30 mass % | BBA Mass Content, %, at T (°C) ([1]; Dioxane, 101 °C): 100 mass % | BBA Mass Content, %, at 20 °C ([1]; Ethanol): 2.8 mass % | BBA Mass Content, %, at T (°C) ([1]; Ethanol, 78 °C): 18 mass % | BBA Mass Content, %, at 20 °C ([1]; Ethylacetate): 53 mass % | BBA Mass Content, %, at T (°C) ([1]; Ethylacetate, 77 °C): 100 mass % | BBA Mass Content, %, at 20 °C ([1]; Hexane): 15 mass % | BBA Mass Content, %, at T (°C) ([1]; Hexane, 69 °C): 52 mass % | BBA Mass Content, %, at 20 °C ([1]; Isopropanol): 6.5 mass % | BBA Mass Content, %, at T (°C) ([1]; Isopropanol, 82 °C): 72 mass % | BBA Mass Content, %, at 20 °C ([1]; Toluene): 100 mass %

C=C(C)[C@@H]1CC[C@]2(C=O)CC[C@]3(C)[C@H](CC[C@@H]4[C@@]5(C)CCC(=O)C(C)(C)[C@@H]5CC[C@]43C)[C@@H]12 [Betulon aldehyde, Betulonic Aldehyde]
rate of the tumor growth inhibited (of the control group) ([2]; 10th day, tumor volume versus control, dose and species not stated in the sentence (method speaks of rats)): 31.2% | ALL (Average length of life) ([2]; rats, Group 1, Dose/day 102.6 mg/kg body weight, injected daily for 5 days, 28 Rats/Group, control 21.7): 26.5 days | % of control (ALL) ([2]; rats, Group 1, Dose/day 102.6 mg/kg body weight, control = 100): 122.1% | % cured ([2]; rats, Group 1, Dose/day 102.6 mg/kg body weight, cured rats lived over two months after implantation): 33.0% | ALL (Average length of life) (EHRLICH-LETTRE CARCINOMA; [3]): 12.5 days | % of control (ALL) (EHRLICH-LETTRE CARCINOMA; [3]): 118.0% | ALL (Average length of life) (EHRLICH-LETTRE CARCINOMA; [4]): 10.5 days | % of control (ALL) (EHRLICH-LETTRE CARCINOMA; [4]): 99.1% | ALL (Average length of life) (EHRLICH-LETTRE CARCINOMA; [5]): 11.0 days | % of control (ALL) (EHRLICH-LETTRE CARCINOMA; [5]): 103.7%
